Numbers after ± are expanded uncertainties.
Experiments:
[1] = for surface tension liquid-gas: Maximal bubble pressure; for mass density: 100 kPa, Liquid, Vibrating tube method
[2] = xn = mol fraction of the nth substance listed; conditions: x2 = 0; for surface tension liquid-gas: Maximal bubble pressure; for mass density: 100 kPa, Liquid, Vibrating tube method

COCC[n+]1ccn(C)c1.O=S(=O)([N-]S(=O)(=O)C(F)(F)F)C(F)(F)F
[1]
Conditions | mass density [kg/m3] | surface tension liquid-gas [mN/m]
288.15 K | 1515.3 ± 9.4 | 41.4 ± 4.2
293.15 K | 1510.15 ± 9.4 | 41.2 ± 4.1
298.15 K | 1505.03 ± 9.4 | 41 ± 4.1
303.15 K | 1499.92 ± 9.3 | 40.7 ± 4.1
308.15 K | 1494.83 ± 9.3 | 40.5 ± 4.1
313.15 K | 1489.77 ± 9.3 | 40.3 ± 4
318.15 K | 1484.72 ± 9.2 | 40.1 ± 4

CO [methanol] + COCC[n+]1ccn(C)c1.O=S(=O)([N-]S(=O)(=O)C(F)(F)F)C(F)(F)F
[2]
Conditions | mass density [kg/m3] | surface tension liquid-gas [mN/m]
288.15 K | 796.037 ± 4.9 | 24.4 ± 2.4
293.15 K | 791.352 ± 4.9 | 23.8 ± 2.4
298.15 K | 786.643 ± 4.9 | 22.9 ± 2.3
303.15 K | 781.913 ± 4.8 | 22.3 ± 2.2
308.15 K | 777.16 ± 4.8 | 21.8 ± 2.2
313.15 K | 772.38 ± 4.8 | 21.1 ± 2.1
318.15 K | 767.567 ± 4.8 | 20.5 ± 2.1

CO [methanol]
[1]
Conditions | mass density [kg/m3] | surface tension liquid-gas [mN/m]
288.15 K | 796.037 ± 4.9 | 24.4 ± 2.4
293.15 K | 791.352 ± 4.9 | 23.8 ± 2.4
298.15 K | 786.643 ± 4.9 | 22.9 ± 2.3
303.15 K | 781.913 ± 4.8 | 22.3 ± 2.2
308.15 K | 777.16 ± 4.8 | 21.8 ± 2.2
313.15 K | 772.38 ± 4.8 | 21.1 ± 2.1
318.15 K | 767.567 ± 4.8 | 20.5 ± 2.1

CCO [ethanol] + COCC[n+]1ccn(C)c1.O=S(=O)([N-]S(=O)(=O)C(F)(F)F)C(F)(F)F
[2]
Conditions | mass density [kg/m3] | surface tension liquid-gas [mN/m]
288.15 K | 793.91 ± 4.9 | 23.3 ± 2.3
293.15 K | 789.66 ± 4.9 | 22.7 ± 2.3
298.15 K | 785.73 ± 4.9 | 22.2 ± 2.2
303.15 K | 781.05 ± 4.8 | 21.6 ± 2.2
308.15 K | 776.7 ± 4.8 | 21.1 ± 2.1
313.15 K | 772.31 ± 4.8 | 20.7 ± 2.1
318.15 K | 767.88 ± 4.8 | 20 ± 2

— the NIST ThermoML archive (doi:10.1016/j.jct.2019.06.005)
